Earlier results on 4 molecules are cited in patent publication US11596693B2, “Antibody-drug conjugates and uses thereof” (priority 2019, dated 2023).

In one data set the test system is many cells. The conditions noted are these: for many cells.
For data set [1], the system named is human-derived cancer cell lines. The conditions noted are these: read-out: median inhibitory concentration.

Square brackets hold non-standard residues; d marks the D form. Peptide text beside a SMILES is read from it. * marks the point of attachment. Dolaproine = CO[C@@H]([C@@H]1CCCN1)[C@@H](C)C(=O)O; Dil = CC[C@H](C)[C@H](NC)[C@@H](CC(=O)O)OC; X1 = C[C@@H](N*)[C@@H](O)c1ccccc1; NMeV = CN[C@H](C(=O)O)C(C)C

With `CC[C@H](C)[C@@H]([C@@H](CC(=O)N1CCC[C@H]1[C@H](OC)[C@@H](C)C(=O)N[C@H](C)[C@@H](O)c1ccccc1)OC)N(C)C(=O)[C@@H](NC(=O)[C@@H](NC)C(C)C)C(C)C` [MMAE, Monomethyl auristatin E] (H-[NMeV]V[Dil][Dolaproine]-X1), the IC50 with many cells is 10 to 1000 pM. On to `COc1cc2cc(c1Cl)N(C)C(=O)CC(OC(=O)[C@H](C)N(C)C(=O)CCC(C)(C)S)C1(C)OC1C(C)C1CC(O)(NC(=O)O1)C(OC)/C=C/C=C(\C)C2` (stereo partly shown) [DM4], for which the IC50 with many cells was about 1 pM. Regarding `COc1cc2cc(c1Cl)N(C)C(=O)CC(OC(=O)[C@H](C)N(C)C(=O)CCS)C1(C)OC1C(C)C1CC(O)(NC(=O)O1)C(OC)/C=C/C=C(\C)C2` (stereo partly shown) [DM1], the IC50 with many cells was about 10 pM. As for `COc1cccc2c1C(=O)c1c(O)c3c(c(O)c1C2=O)C[C@@](O)(C(=O)CO)C[C@@H]3O[C@H]1C[C@H](N)[C@H](O)[C@H](C)O1` [doxorubicins, Doxorubicin], the IC50 in data set [1] is 100000 to 200000 pM.
